Measured values from patent publication US8268836B2, “Compound useful as a c-Met inhibitor” (Eli Lilly and Company, priority 2010, dated 2012).
Values after ≈ are worked out from the molar mass of the structure shown. Read-outs that look alike come from different tables or passages of the source.

Key:
[1] = target: T1, Met (pY1349) in NCl-H460 cells (Homo sapiens, UniProt P08581); assay: HGF stimulated Met (pY1349) NCI-H460 cell-based ELISA; conditions: HGF 100 ng/mL stimulated NCI-H460 cells; read-out: relative IC50, H460 assay (c-Met phosphorylation)
T1 construct: host or cells: NCI-H460
T1 sequence (P08581 25-1390): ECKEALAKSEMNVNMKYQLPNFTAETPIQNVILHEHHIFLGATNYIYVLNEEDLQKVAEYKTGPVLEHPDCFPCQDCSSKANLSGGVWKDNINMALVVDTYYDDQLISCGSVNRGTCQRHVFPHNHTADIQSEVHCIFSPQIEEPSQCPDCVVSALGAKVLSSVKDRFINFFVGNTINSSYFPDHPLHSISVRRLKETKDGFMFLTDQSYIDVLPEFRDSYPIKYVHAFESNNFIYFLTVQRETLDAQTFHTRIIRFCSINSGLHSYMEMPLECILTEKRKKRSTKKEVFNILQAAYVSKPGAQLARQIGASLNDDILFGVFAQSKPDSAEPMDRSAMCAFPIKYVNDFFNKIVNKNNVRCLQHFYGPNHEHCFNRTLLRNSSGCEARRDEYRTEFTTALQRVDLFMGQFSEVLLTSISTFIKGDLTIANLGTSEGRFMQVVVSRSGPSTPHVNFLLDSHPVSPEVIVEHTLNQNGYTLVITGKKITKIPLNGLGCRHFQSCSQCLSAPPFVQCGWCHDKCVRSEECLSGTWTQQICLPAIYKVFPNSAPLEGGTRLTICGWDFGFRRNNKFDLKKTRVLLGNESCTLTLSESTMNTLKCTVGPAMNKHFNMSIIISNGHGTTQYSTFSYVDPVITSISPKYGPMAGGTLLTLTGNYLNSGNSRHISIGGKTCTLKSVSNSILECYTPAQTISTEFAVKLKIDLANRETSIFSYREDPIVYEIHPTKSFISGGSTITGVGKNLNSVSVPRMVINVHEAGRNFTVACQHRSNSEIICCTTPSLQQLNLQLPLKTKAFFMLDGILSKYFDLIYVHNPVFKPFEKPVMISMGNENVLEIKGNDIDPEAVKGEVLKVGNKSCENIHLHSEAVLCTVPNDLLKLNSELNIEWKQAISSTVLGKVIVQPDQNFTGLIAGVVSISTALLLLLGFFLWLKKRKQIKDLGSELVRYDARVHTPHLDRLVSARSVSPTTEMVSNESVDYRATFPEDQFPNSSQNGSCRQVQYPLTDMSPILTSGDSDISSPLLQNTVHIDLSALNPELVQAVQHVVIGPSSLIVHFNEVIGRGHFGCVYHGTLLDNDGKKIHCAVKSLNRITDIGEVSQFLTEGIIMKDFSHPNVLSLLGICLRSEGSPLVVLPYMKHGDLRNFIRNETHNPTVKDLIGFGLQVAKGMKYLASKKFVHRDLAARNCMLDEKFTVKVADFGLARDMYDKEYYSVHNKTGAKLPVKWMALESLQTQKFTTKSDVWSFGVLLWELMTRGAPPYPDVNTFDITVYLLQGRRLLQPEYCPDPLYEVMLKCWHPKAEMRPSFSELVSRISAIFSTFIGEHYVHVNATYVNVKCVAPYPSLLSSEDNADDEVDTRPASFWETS
Protocol: NCl—H460 cells (purchased from ATCC) are cultured in RPMI 1640 media (Invitrogen) supplemented with 10% Fetal Bovine Serum (FBS) and plated (prior to becoming 70% confluent) in 96-well flat-bottom plates at a density of 20,000 cells per well in 80 μL volume. The cells are then incubated overnight in a cell culture incubator (5% CO2, 95% Relative Humidity (RH) and 37° C.) and allowed to attach to the plate. The following morning the cells are washed with 2 volumes of a Reduced Serum Media (RSM, RPMI 1640 media supplemented with 0.5% FBS). After removal of the last wash, 80 μL of RSM is added to each well of the cell plates. The cell plates are incubated for 2.5 h in a cell culture incubator, and then dosed with compounds. Compound inhibitors are first solubilized at 10 mM in 100% DMSO and then diluted to 100 μM with 2% DMSO RSM. […] After 1 h capture (at RT) the MSD® plate wells are washed with 1× Tris Wash Buffer, and then 150 μL of 1× Read Buffer T (with surfactant, MSD®) is added. Immediately after the addition of the Read Buffer, the plates are analyzed with a SECTOR 6000 MSD® Imager plate reader. Relative IC50 values are determined using MSD activity units by calculating percent inhibition with respect to on-plate “MIN” and “MAX” controls and then fitting the percent inhibition values and ten-point dose response data to a four-parameter logistic equation.

MKN45 gastric xenografts = assay: Xenograft tumor model MKN45; format: in vivo, mice
Protocol: Human glioblastoma cells U87MG, human gastric cancer cells MKN45, or human pancreatic KP4 cells are cultured and implanted subcutaneously in the rear flank of female CD-1 nu/nu strain mice which have been acclimated for one week in the animal facility after receipt from the vendor. Mice are randomized into groups of 10 mice per group. Testing compound is prepared in an appropriate vehicle and is administered by oral gavage when tumors are established (7-21 days after implant, or when the mean tumor volume reaches ˜100 mm^3). Tumor response is determined by tumor volume measurement performed twice a week during the course of treatment. Fluctuations in body weight are also monitored as a general measurement of toxicity. The compound of example 1 is orally administered twice a day for 28 days.
For statistical analysis, the individual subject tumor volumes are transformed to log volume and are analyzed with a two-way repeated measures analysis of variance by time and treatment using the MIXED procedures in SAS software (version 8.2). The correlation model for the repeated measures is spatial power. Treated groups are compared to the control group at the final time point. The MIXED procedure is also used separately for each treatment group to calculate adjusted means and standard errors at each time point. Both analyses account for the autocorrelation within each subject.

Dynamic solubility = format: physicochemical; conditions: for solubility at 18 h: thermodynamic from solid
Protocol: The media included simulated gastric fluid (SGF) which comprise of 0.01N HCl, 0.05% sodium lauryl sulfate, and 0.2% NaCl; fasted state simulated intestinal fluid (SIF-fasted) which composed of 29 mM NaH2PO4, 3 mM Na taurocholate, 0.75 mM lecithin, 103 mM NaCl, and NaOH to pH 6.5; fed state simulated intestinal fluid (SIF-fed) which comprise of 144 mM acetic acid, 15 mM Na taurocholate, 3.75 mM lecithin, 204 mM NaCl, and NaOH to pH 5.0; and pH 4.5, 6, 7.5 buffers which are 28-56 mM phosphate buffers. The compound concentrations are determined using Agilent 1200 HPLC (LC5) with a UV detector. Mobile phase uses A (85%) which is water containing 0.1% TFA and B (15%) which is ACN at a flow rate of 1 mL/min and run time of 10 min. Column of Zorbax, Bonus-RP (3.5 μm, 4.6×75 mm; SN: USTM002428) is used in the studies.

Q: Which IC50 [1] does the source give for `Cn1cc(-c2ccc3nnc(Sc4ccc5nn(C)cc5c4)n3n2)cn1` [Example 1, 6-(1-Methyl-1H-pyrazol-4-yl)-3-(2-methyl-2H-indazol-5-ylthio)-[1,2,4]triazolo[4,3-b]pyridazine] here?
A: Its IC50 is 0.036 µM.

Q: What about the “Mean Tumor Volume ± Standard Error” value (MKN45 gastric xenografts; 4 mg/kg oral twice a day for 28 days) of the same compound?
A: The value was 329 ± 54 mm^3.

Q: What about the “Mean Tumor Volume ± Standard Error” value (MKN45 gastric xenografts; 8 mg/kg oral twice a day for 28 days) of the same compound?
A: Its value is 296 ± 29 mm^3.

Q: And the “Mean Tumor Volume ± Standard Error” value (MKN45 gastric xenografts; 16 mg/kg oral twice a day for 28 days)?
A: Its value is 166 ± 10 mm^3.

Q: What about the “Mean Tumor Volume ± Standard Error” value (MKN45 gastric xenografts; 32 mg/kg oral twice a day for 28 days) of the same compound?
A: The value was 161 ± 14 mm^3.

Q: And the solubility at 18 h (Dynamic solubility; 0.01N HCl, simulated gastric fluid, read-out: Dynamic solubility, 0.01N HCl)?
A: The solubility at 18 h was 0.011 mg/mL (≈ 30.4 µM).

Q: And the solubility at 18 h (Dynamic solubility; 0.1N HCl, simulated gastric fluid, read-out: Dynamic solubility, 0.1N HCl)?
A: The solubility at 18 h was 0.033 mg/mL (≈ 91.1 µM).

Q: What about the “fold more soluble than the reference compound, SIF fasted” value (Dynamic solubility; SIF fasted state) of the same compound?
A: The value was “approximately 13 fold”.

Q: And the “fold more soluble than the reference compound, SIF fed” value (Dynamic solubility; SIF fed state)?
A: Its value is roughly 14 fold.

Q: And the solubility at 18 h (Dynamic solubility; aqueous buffer, pH ≧ 4 phosphate buffer, read-out: Dynamic solubility, pH ≧ 4 buffer)?
A: Its solubility at 18 h is roughly 0.01 mg/mL (≈ 27.6 µM).

Q: And the solubility at 18 h (Dynamic solubility; fassif, fasted state simulated intestinal fluid pH 6.5, 18 h ambient, read-out: Dynamic solubility, SIF Fasted)?
A: The solubility at 18 h was 0.013 mg/mL (≈ 35.9 µM).

Q: What about the solubility at 18 h (Dynamic solubility; fessif, fed state simulated intestinal fluid pH 5.0, 18 h ambient, read-out: Dynamic solubility, SIF Fed) of the same compound?
A: Its solubility at 18 h is 0.07 mg/mL (≈ 193 µM).

Q: What about the solubility at 18 h (Dynamic solubility; simulated gastric fluid, 18 h ambient, read-out: Dynamic solubility, SGF) of the same compound?
A: Its solubility at 18 h is 0.052 mg/mL (≈ 143 µM).

Q: What about the solubility at 18 h (Dynamic solubility; water, read-out: Dynamic solubility, Water) of the same compound?
A: Its solubility at 18 h is 0.009 mg/mL (≈ 24.8 µM).
